pIC50: −log10 of the molar value. Entries after “also recorded” stand apart in the source; their conditions may differ.
Assays:
hCXCR4-GFP [1] = molecular target: T1, hCXCR4-GFP (Homo sapiens, UniProt P61073); assay: Chemotaxis assay, hCXCR4-GFP expressing 300.19 cells, CXCL12; type: cell-based; details: hCXCR4-GFP 300.19 cells, CXCL12
Procedure: (§1) Cells were suspended in chemotaxis buffer (RPMI 1640, 1% fetal bovine serum, 1 mM HEPES) at a concentration of 1×10^7 cells per ml. Cell chemotaxis was determined by examining the migration of the 300.19 cells in response to administration of 50 μM test compound plus an optimized concentration of CXCL12 using a chemotaxis assay that was previously described in Basu et al. (Basu et al., Critical role for polar residues in coupling leukotriene B4 binding to signal transduction in BLT1, J. Biol. Chem. (2007) Vol. 282, pp. 10005-17). 100 μL of 300.19 cells from the above cell suspension were placed in the upper chamber of a Transwell support (Corning Costar, Cambridge, Mass.) and were separated by a 5 micron filter from a bottom chamber containing 50 μM test compound plus the optimized concentration of CXCL12 in a final bottom chamber volume of 600 μl. After 3 h of incubation at 37° C. in 5% CO2, the upper chamber was removed and cells in the lower chamber were counted in a Bürker chamber. Cell counts for all samples were normalized to a CXCL12 plus DMSO control and results are reported using this normalized measure, referred to herein as the chemotaxis index. In some instances, the IC50 concentration (i.e., the concentration at which the chemotaxis index is reduced to 50% of the chemotaxis index of the CXCL12 plus DMSO control) of the test compounds was determined. All assays were performed a minimum of four times; error bars represent the standard deviation of the mean.

CXCR4 = molecular target: T2, CXCR4 (Homo sapiens, UniProt P61073); assay: CXCL12-mediated chemotaxis of THP-1 cells; type: cell-based; details: 10 μM compound, CXCL12 500 ng/ml
T2 construct: endogenous in cells; host or cells: THP-1 cells (ATCC TIB-202)
Procedure: Data are presented as a percentage of THP-1 cells (obtainable from ATCC accession number TIB-202) migrating toward a CXCL12 gradient of 500 ng/ml, normalized to the control, which was the CXCL12 only treatment. All assays were performed a minimum of four times with inhibitor concentration of 10 μM, except for I-61 and I-62 which used an inhibitor concentration of 1 μM. Error bars represent the standard deviation of the mean.
(§2) Chemotaxis assays were performed with selected compounds at a concentration of 10 μM. Chemokines signaling via CXCR4 (CXCL12 at concentration of 500 ng/ml) and CCR5 (RANTES at concentration of 300 ng/ml) were utilized to assess the receptor specificity of each compound. Each pair of columns for a lane corresponds to two separate representative experiments. The negative control samples (lanes 2 and 7) correspond to the chemotaxis without CXCL12 or RANTES. The CXCL12 and RANTES lanes are positive controls corresponding to CXCL12 alone (lanes 1 and 6) or RANTES alone (lanes 4 and 9) mediated chemotaxis. The experimental samples (lanes 3, 5, 8, and 10) correspond to CXCL12- or RANTES-mediated chemotaxis when the cells are co-incubated with I-38 or I-46.

300.19 cells = assay: Cytotoxicity assay, propidium iodide based flow cytometry; type: cell-based; details: 50 μM test compound
Procedure: Cytotoxicity Assay Method: To determine the potential for test compound cytotoxicity to influence cell intracellular calcium mobilization and chemotaxis, cell cytotoxicity was assessed using propidium iodide (PI) based flow cytometry. Propidium iodine is impermeable to intact cell membranes and thus its lack of intercalation into DNA (which increases PI fluorescence) is a positive indicator of cell viability. Cytotoxicity values are presented as percentage of cells staining positive for PI. Lower values of fluorescence indicate less cytotoxicity. All assays were performed a minimum of four times; error bars represent the standard deviation of the mean.

CCR5 = molecular target: T3, CCR5 (Homo sapiens, UniProt P51681); assay: RANTES-mediated chemotaxis of THP-1 cells; type: cell-based; details: 10 μM compound, RANTES 300 ng/ml
T3 construct: endogenous in cells; host or cells: THP-1 cells
Procedure: as §2

BLT1 [2] = molecular target: T4, BLT1 (Homo sapiens, UniProt Q15722); assay: Chemotaxis assay, cells expressing BLT1, LTB4; type: cell-based; details: 50 μM test compound, LTB4-induced
Procedure: as §1
To examine specificity of some of the compounds for CXCR4, their activity was tested against a non-family member class A G protein-coupled receptor, BLT1. […] I-38 and I-43 inhibited BLT1-mediated chemotaxis (0.23) and (0.045) to about the same extent as CXCR4-mediated chemotaxis (0.21) and (0.064), respectively.

hCXCR4-GFP [3] = molecular target: T1, hCXCR4-GFP; assay: Intracellular calcium mobilization assay, hCXCR4-GFP expressing 300.19 cells, CXCL12; type: cell-based; design: IC50 of intracellular calcium mobilization, CXCR4; other: CXCL12-mediated; other: 50 μM test compound; normalized Δ fluorescence (CXCR4, intracellular calcium mobilization); other: 50 μM test compound, 60 seconds pretreatm; details: 50 μM test compound
Procedure: (§3) Intracellular Calcium Mobilization Assay Method: The intracellular calcium mobilization assay used 300.19 cells which stably expressed hCXCR4-GFP, as described previously in Pello et al. (2008). Cells were loaded with INDO-I and then pretreated with the 50 μM of the test compound for 60 seconds prior to stimulation of intracellular calcium mobilization with an optimized concentration of CXCL12. […] The value Δ florescence is the difference between (a) the fluorescence ratio from cells before exposure to CXCL12 at its optimized concentration and (b) the fluorescence ratio from cells following stimulation with the optimized concentration of CXCL12. Decreases in Δ florescence correspond to decreases in intracellular calcium mobilization, and therefore, decreased signaling. As CXCL12 concentration was optimized for each test compound, results are presented as normalized Δ florescence which is Δ fluorescence divided by the fluorescence ratio of optimized CXCL12-only stimulation. In some instances, the IC50 concentration (concentration at which intracellular calcium mobilization is reduced to 50% of the Δ fluorescence of the CXCL12 plus DMSO control) of the test compounds was determined. All assays were performed a minimum of four times; error bars represent the standard deviation of the mean.

TC-1 tumor cells = type: in vivo; details: 5 mg/kg i.p. every day for 21 days
Description: Development of Animal Model for CXCR4 Dependent Cancer Metastasis in Lungs: To establish a CXCR4 dependent lung tumor metastasis model, we first screened several cancer cell lines that are known to metastasize to lungs in mice models to determine which cancer cell lines endogenously express CXCR4 receptor. The mice cell lines screened were Lewis lung carcinoma, B16F10 melanoma, and TC-1 cervical carcinoma. Mice cell lines were screened using flow cytometry-based surface receptor staining using a fluorochrome labeled antibody to mouse CXCR4 receptor. […] The TC-1 cell line was generated by transfection of murine lung squamous epithelial cells by Human pappillomavirus (HPV) oncogenes E6, E7, and activated Ras.
5 mg/kg body weight of AMD3100, I-28, I-36, or I-38 were also injected at the same dose intra-peritoneal (i.p.) every day for 21 days starting from the day before the tumor cell injection. Mice were sacrificed and lungs were perfused and collected on day 21 post tumor challenge. Lungs were stored in formalin for 16 hrs and then transferred into 70% ethanol until the lung lobes became lucid. All five lung lobes were separated. Tumors were counted using a magnifying glass or a microscope. Tumor sizes were measured using a digital caliper. The total number of tumors counted in all five lung lobes of an individual mouse is reported as the tumor incidence. Mean tumor sizes were added together to calculate cumulative tumor size, which is reported as the tumor burden for each mouse.

[4] = Test for toxicity in mice; type: in vivo; details: i.p. 5 mg/kg, then 20 or 40 mg/kg two days later; observed over 3 weeks
Procedure: Test for Toxicity: Mice were treated by intra-peritoneal injections of three of compounds I-28, I-36, and I-38 at the first dose of 5 mg/kg of body weight, followed by a second injection of either 20 mg/kg of body weight or 40 mg/kg of body weight two days later.

BLT1 [5] = molecular target: T4, BLT1; assay: Intracellular calcium mobilization assay, cells expressing BLT1, LTB4; type: cell-based; details: 50 μM test compound, LTB4
Procedure: as §3
At 50 μM test compound concentrations in BLT1-expressing cells, I-44 (0.040) and I-46 (0.017) inhibited intracellular calcium mobilization.

T1 sequence (P61073 whole entry): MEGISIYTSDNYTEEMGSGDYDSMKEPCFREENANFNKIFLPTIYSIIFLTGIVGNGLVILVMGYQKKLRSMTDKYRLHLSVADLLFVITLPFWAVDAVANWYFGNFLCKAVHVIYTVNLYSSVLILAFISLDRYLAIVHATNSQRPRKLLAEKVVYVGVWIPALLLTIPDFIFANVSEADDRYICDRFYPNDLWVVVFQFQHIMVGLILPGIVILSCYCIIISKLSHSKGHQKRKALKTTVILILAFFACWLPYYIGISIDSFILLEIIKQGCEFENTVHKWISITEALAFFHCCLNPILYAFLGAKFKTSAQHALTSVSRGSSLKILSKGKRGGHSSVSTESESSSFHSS
T3 sequence (P51681 whole entry): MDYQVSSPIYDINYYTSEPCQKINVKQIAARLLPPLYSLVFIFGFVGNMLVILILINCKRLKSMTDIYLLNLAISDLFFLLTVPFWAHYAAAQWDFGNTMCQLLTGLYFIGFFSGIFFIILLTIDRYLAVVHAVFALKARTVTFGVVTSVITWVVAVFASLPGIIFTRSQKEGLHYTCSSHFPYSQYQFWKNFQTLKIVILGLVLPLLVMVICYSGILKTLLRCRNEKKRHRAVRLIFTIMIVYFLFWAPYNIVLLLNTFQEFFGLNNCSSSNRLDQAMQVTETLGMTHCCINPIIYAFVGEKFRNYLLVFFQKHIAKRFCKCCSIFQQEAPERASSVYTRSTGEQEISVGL
T2 sequence (P61073 whole entry): as the sequence (P61073 whole entry) above
T4 sequence (Q15722 whole entry, species assumed): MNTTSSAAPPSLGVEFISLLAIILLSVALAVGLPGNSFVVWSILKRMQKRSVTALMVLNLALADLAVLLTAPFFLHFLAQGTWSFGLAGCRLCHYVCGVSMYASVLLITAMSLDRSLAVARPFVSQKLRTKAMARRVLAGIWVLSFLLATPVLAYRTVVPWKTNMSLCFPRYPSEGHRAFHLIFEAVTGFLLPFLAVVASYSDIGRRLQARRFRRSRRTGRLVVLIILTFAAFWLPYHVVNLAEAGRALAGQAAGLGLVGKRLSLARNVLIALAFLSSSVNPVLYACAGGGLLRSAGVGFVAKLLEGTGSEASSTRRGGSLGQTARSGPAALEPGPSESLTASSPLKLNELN

Row | normalized Δ fluorescence (CXCR4, intracellular calcium mobilization) (hCXCR4-GFP [3]; 60 seconds pretreatment, optimized CXCL12 (AMD3100 concentration not given)) | normalized Δ fluorescence (BLT1, intracellular calcium mobilization) (BLT1 [5]) | SMILES | pIC50 (hCXCR4-GFP [1]) | inhibition of CXCL12-mediated migration of THP-1 cells (CXCR4) | cytotoxicity, percentage of cells staining positive for PI (300.19 cells) [%] | inhibition of RANTES-mediated migration of THP-1 cells (CCR5) | chemotaxis index (BLT1-mediated) (BLT1 [2]) | inhibition of intracellular calcium mobilization (in words) (hCXCR4-GFP [3]) | efficacy compared with AMD3100 (TC-1 tumor cells) | reduction of average tumor burden (TC-1 tumor cells) | TC-1 metastatic tumor incidence and burden in lungs (TC-1 tumor cells; versus PBS or Vehicle controls) | apparent toxicity (loss of body weight, signs of physiological distress) [4]
1 |  |  | O=C(CO/N=C/c1ccccc1)N/N=C1\C(=O)N(CN(Cc2ccccc2)Cc2ccccc2)c2ccccc21 [Compound I-38, acetic acid, 2-[[(phenylmethylene)amino]oxy]-,2-[1-[[bis(phenylmethyl)amino]methyl]-1,2-dihydro-2-oxo-3H-indol-3-ylidene]hydrazide] | 5.30 | specifically inhibit CXCR4 mediated migration | 7.93 | specifically inhibit CXCR4 mediated migration | 0.23 | does not significantly inhibit intracellular calcium mobilization; also recorded: little reduction of intracellular calcium mobilization | more effective than AMD3100 | more than 60% | reduced mice TC-1 metastatic tumor incidence and burden in lungs | did not induce any apparent toxicity
2 | 0.067 | 0.017 | O=C(Nc1ccc2ccc3ccc(NC(=O)c4ccccc4)nc3c2n1)c1ccccc1 [Compound I-46, N,N′-1,10-phenanthroline-2,9-diylbis-benzamide] |  | inhibit migration to both chemokines |  | inhibit migration to both chemokines |  |  |  |  |  | 
